Measured values as given in patent US20200190090A1, “OREXIN RECEPTOR ANTAGONISTS” (BENEVOLENTAI BIO LIMITED, priority 2017, published 2020).
Where two headings read alike, the source gives them in different places.

What was measured:
[1] = biological target: T1, human recombinant OX1 (hOX1R) receptor (Homo sapiens, UniProt O43613); test: Scintillation Proximity binding Assay (SPA), [3H]-SB674042 displacement, membranes of CHO cell line transformed with hOX1R; details: for Ki: 60 min, Cheng-Prusoff from IC50, geometric mean, read-out: hOX1R Binding pKi (60 min) (converted); for IC50: SPA, [3H]-SB674042, room temperature (19° C.), GeoMean, read-out: IC50 OX1R
T1 construct: expressed in transfected cells; host or cells: CHO cell line (membranes)
T1 sequence (O43613 1-425): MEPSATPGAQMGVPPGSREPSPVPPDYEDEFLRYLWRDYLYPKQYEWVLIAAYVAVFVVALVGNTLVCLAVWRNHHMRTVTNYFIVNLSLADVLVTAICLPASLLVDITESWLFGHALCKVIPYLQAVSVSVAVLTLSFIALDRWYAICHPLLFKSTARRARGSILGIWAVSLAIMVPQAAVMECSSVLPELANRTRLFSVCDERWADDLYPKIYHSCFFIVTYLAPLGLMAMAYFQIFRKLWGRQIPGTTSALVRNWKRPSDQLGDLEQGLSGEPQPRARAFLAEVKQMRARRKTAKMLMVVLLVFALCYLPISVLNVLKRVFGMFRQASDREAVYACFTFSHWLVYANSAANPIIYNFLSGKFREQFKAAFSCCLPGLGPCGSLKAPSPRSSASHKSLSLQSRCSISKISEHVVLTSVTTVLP
Description: (§1) The in vitro binding affinity of 6-[(3aS,4S,6aR)-5-(2-fluoro-4-methoxybenzoyl)-4-methyl-octahydropyrrolo[3,4-c]pyrrol-2-yl]-2,4-dimethylpyridine-3-carbonitrile 3278/6 (the compound of Example 1) for human recombinant OX1 (hOX1R) and OX2 (hOX2R) receptors was determined using a Scintillation Proximity binding Assay (SPA).
(§2) A 96-well plate SPA was developed using antagonist radioligands (OX-radioligands); [3H]-SB674042 (Langmead et al., 2004; Malherbe et al., 2009a) for hOX1R and [3H]-EMPA (Malherbe et al., 2009b) for hOX2R. Cell membranes were prepared from recombinant cell lines; a CHO cell line transformed with hOX1R (GeneBank accession # NM_001525) and a HEK cell line transformed with hOX2R (GeneBank accession # NM_001526.2).
(§3) On the day of the assay, membranes containing hOX1R or hOX2R were captured onto SPA-beads. All test compounds were dissolved in 100% DMSO as 10 mM stock solutions, and prepared as 8-point semi-log dilution in 100% DMSO immediately prior to assay (final assay range 5 uM to 0.064 nM). The compound of Example 1 was co-administered with the appropriate OX-radioligand, and the SPA-membrane preparation added to initiate the assay. During the assay, any compound of Example 1 that bound to the receptors competed with radioligand and reduced the assay signal. Assay plates were read using PerkinElmer Microbeta2 allowing the binding profile of the compound of Example 1 to be assessed at room temperature (19° C.) over several time points (15, 60, 90, 120, 150 minutes, and 18 hours) in hOX1R and hOX2R assay formats.
(§4) End-point data values were determined as Specific Binding (SB) and expressed as a percentage of control (% SB), with 100% being the SB of OX-radioligand in the absence of competing unlabelled ligand, and 0% being the SB of the relevant OX-radioligand in the presence of an excess of the competing cold/unlabelled ligand (Suvorexant; a dual OXR-antagonist [DORA]).
(§5) TB=Total Bound (in presence of 0.5% DMSO); NSB=Non Specific Bound (in the presence of Suvorexant at 1 μM)=0%;
(§6) SB=Specific Bound (TB-NSB)=100%
(§7) Assay data were used to determine half maximal inhibitory concentration (IC50) using a four-parameter logistic model in XLfit and/or GraphPad Prism v5. IC50 were derived from plots of % SB against log 10 of the concentration of the compound of Example 1. The pKi were calculated from the IC50 using the Cheng-Prusoff correction: […]=IC50/(1+([L]/KD)) where [L] is the radioligand concentration in the displacement assay, and KD is the dissociation constant of the radioligand.
(§8) The Selectivity value is derived from the Ki [Ki (OX2R)/Ki(OX1R)].
(§9) was prepared and tested by analogous methods to those described above in Example 1 and Example 2 in respect of the compound of Example 1.

[2] = biological target: T2, human recombinant OX2 (hOX2R) receptor (Homo sapiens, UniProt O43614); test: Scintillation Proximity binding Assay (SPA), [3H]-EMPA displacement, membranes of HEK cell line transformed with hOX2R; details: for Ki: 60 min, Cheng-Prusoff from IC50, geometric mean, read-out: hOX2R Binding pKi (60 min) (converted); for Selectivity OX2R/OX1R: selectivity calculated using Ki (Ox2R)/Ki(Ox1R)
T2 construct: expressed in transfected cells; host or cells: HEK cell line (membranes)
T2 sequence (O43614 1-444): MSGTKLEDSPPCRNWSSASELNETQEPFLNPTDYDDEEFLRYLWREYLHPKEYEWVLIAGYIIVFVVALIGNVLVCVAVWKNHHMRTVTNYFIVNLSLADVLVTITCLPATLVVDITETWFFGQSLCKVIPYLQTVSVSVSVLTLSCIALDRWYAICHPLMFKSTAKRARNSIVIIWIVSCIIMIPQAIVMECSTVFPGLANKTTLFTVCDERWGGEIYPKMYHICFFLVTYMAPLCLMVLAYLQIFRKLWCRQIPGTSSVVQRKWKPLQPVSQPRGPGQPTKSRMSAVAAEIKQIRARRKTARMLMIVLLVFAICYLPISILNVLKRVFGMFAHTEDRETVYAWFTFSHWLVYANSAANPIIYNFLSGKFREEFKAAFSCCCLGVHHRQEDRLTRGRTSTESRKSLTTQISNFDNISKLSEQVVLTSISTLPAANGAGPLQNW
Description: as §1, §2, §3, §4, §5, §6, §7, §8, §9

[3] = SPA, [3H]-EMPA, room temperature (19° C.), GeoMean, read-out: IC50 OX2R
[4] = data at 60 min, read-out: OX2R pIC50 (converted)

SMILES	affinity for hOX1R (in words) [1]	Ki [1] [nM]	IC50 [1] [nM]	affinity for hOX2R (in words) [2]	Ki [2] [nM]	IC50 [2, 3] [nM]	affinity for hOX2R compared with comparative Example A (in words) ([2]; comparison)	IC50 [2, 4] [nM]	hOX2R Selectivity (IC50 hOX2R/hOX1R) ([2]; head says IC50 ratio)	selectivity for hOX2R ([2]; over hOX1R) [fold]	hOX2R Binding Equilibration Time ([2]; room temperature (19° C.)) [min]	Selectivity OX2R/OX1R [2]	OX2R Selectivity (IC50 OX1R/OX2R) ([2]; IC50 ratio)
COc1ccc(C(=O)N2C[C@H]3CN(c4cc(C)c(C#N)c(C)n4)C[C@H]3[C@@H]2C)c(F)c1 [Example 1, 6-[(3aS,4S,6aR)-5-(2-fluoro-4-methoxybenzoyl)-4-methyl-octahydropyrrolo[3,4-c]pyrrol-2-yl]-2,4-dimethylpyridine-3-carbonitrile]	high affinity	47.9	97.7	high affinity	0.724	1.23	higher affinity	1.23	69	69	38	69	
COc1ccc(C(=O)N2C[C@@H]3CN(c4cc(C)c(C#N)c(C)n4)C[C@@H]3C2)c(F)c1 [Example A, 6-[(3aS,4S,6aR)-5-(2-fluoro-4-methoxybenzoyl)-octahydropyrrolo[3,4-c]pyrrol-2-yl]-2,4-dimethylpyridine-3-carbonitrile, reference compound]		3630	7840		85.1	150		151				43	52
